Data from US9353088B2, “Crystalline pharmaceutical and methods of preparation and use thereof” (SARcode Bioscience Inc., priority 2009, dated 2016).
“Also recorded” adds a separate entry of the source.

Assays:
[1] = system: micronuclei in polychromatic erythrocytes (PCE); assay: In vivo mouse bone marrow micronucleus assay; parameters: species or system CD-1 (ICR) BR mice; settings: repeated IV administrations
[2] = Respiratory function, single IV bolus, head-out plethysmograph; type: in vivo, rats; settings: any dose
[3] = Pilot mini-pig dermal study; type: in vivo, mini-pigs; settings: DMSO, gel, ointment, lotion at 1%, dermal TID for 7 days
[4] = Single dose ocular and IV ADME with [14C]-compound, whole body autoradiography; type: in vivo, rats; settings: for fecal excretion of administered radioactivity: 0 to 168 hours postdose; for Concentration, Aqueous humor / Concentration, Conjunctiva (bulbar) / Concentration, Conjunctiva (palpebral) / Concentration, Cornea / Concentration, Iris-ciliary body / Concentration, Lens / Concentration, Optic Nerve / Concentration, Retina and Choroid (with RPE) / Concentration, Sclera / Concentration, Vitreous Humor: ocular dosing
[5] = Single dose ocular tolerance; settings: single dose ocular tolerance (10%)
[6] = Plasma PK after single IV bolus dose; type: in vivo; settings: rat, rats, read-out: clearance rate
Excerpt: The systemic clearance rate can be calculated by various means known in the art. For example, the clearance rate for a drug may be calculated from an analysis of the drug concentration time profile for the rate of disappearance of a drug from the plasma following administration of the formulation, for example after a single intravenous injection. One of skill in the art could use a variety of methods to calculate and determine systemic clearance rates. For example, the rate of disappearance may be measured by analysis of the absorption, distribution, metabolism and excretion of a radiolabelled form of a drug or other means of measuring the level of drug in plasma, such as gas chromatography (Sapirstein et al., 1955, Am. Jour. Physiol., Vol. 181, pp. 330; U.S. Pat. No. 4,908,202), liquid chromatography-mass spectrometry methods (LCMS) or HPLC methods. As another example, the clearance rate may be calculated by introducing the formulation to the subject by continuous intravenous infusion until an equilibrium is reached at which the plasma level of the substance (as determined by analysis of plasma samples) is steady, at which point the infusion rate is equal to the rate of clearance from plasma (Earle et al., 1946, Proc. Soc. Exp. Biol. Med., Vol. 62, pp. 262 ff.) […]

[7] = Plasma PK after single topical ocular instillation; settings: post-dose
[8] = 13-week IV toxicity study with 4-week recovery; type: in vivo, rats; settings: Day 1
[9] = 0.5 hour, topical ocular 1 mg/eye
[10] = 0.5 hour, topical ocular 1 mg/eye, above upper limit of quantification
[11] = 8 hours postdose, topical ocular 1 mg/eye
[12] = 24 hours postdose, topical ocular 1 mg/eye

## CS(=O)(=O)c1cccc(C[C@H](NC(=O)c2c(Cl)cc3c(c2Cl)CCN(C(=O)c2ccc4ccoc4c2)C3)C(=O)O)c1 [Compound of Formula I]
[1]
  bone marrow micronucleus result: no effect; also recorded: negative
[2]
  respiratory function (tidal volume, respiration rate, minute volume): No adverse changes in respiratory function or adverse effects
[3]
  toxicity: No toxicity was reported
[4]; [9]
  radioactivity concentration, eye: 18100 ng equivalents [^14C]-compound of Formula I/g
  radioactivity concentration, kidney: 151 ng equivalents [^14C]-compound of Formula I/g
  radioactivity concentration, liver: 272 ng equivalents compound of Formula I/g
  radioactivity concentration, uveal tract: 9330 ng equivalents [^14C]-compound of Formula I/g
[4]; 0.5 hour, topical ocular 1 mg/eye, male Sprague Dawley, above upper limit of quantification
  radioactivity concentration, esophageal contents: 399000 ng equivalents [^14C]-compound of Formula I/g
[4]; [10]
  radioactivity concentration, nasal turbinates: 352000 ng equivalents [^14C]-compound of Formula I/g
  radioactivity concentration, small intestinal contents: 349000 ng equivalents [^14C]-compound of Formula I/g
[4]; [11]
  radioactivity concentration, cecum contents: 57600 ng equivalents [^14C]-compound of Formula I/g
  radioactivity concentration, large intestinal contents: 133000 ng equivalents [^14C]-compound of Formula I/g
[4]; 12 hours postdose, topical ocular 1 mg/eye
  radioactivity concentration, uveal tract: 610 ng equivalents [^14C]-compound of Formula I/g
[4]; [12]
  radioactivity concentration, cecum contents: 5870 ng equivalents [^14C]-compound of Formula I/g
  radioactivity concentration, large intestinal contents: 18000 ng equivalents [^14C]-compound of Formula I/g
[4]; IV administration 10 mg/kg
  fecal excretion of administered radioactivity: ~95%
[4]; at 2 hours postdose
  decline of radioactivity concentration, esophageal contents: ~100 fold
  decline of radioactivity concentration, esophagus: approximately 50 fold
[4]; for 16 hrs, rat
  levels in conjunctiva/cornea: > 100 nM
[4]; ocular administration 1 mg/eye
  fecal excretion of administered radioactivity: approximately 60%
[4]; 0.5 hour after administration
  Concentration, Aqueous humor: 1770 ng Equivalents [^14C]-compound of Formula I/g tissue
  Concentration, Conjunctiva (bulbar): 31500 ng Equivalents [^14C]-compound of Formula I/g tissue
  Concentration, Conjunctiva (palpebral): 26300 ng Equivalents [^14C]-compound of Formula I/g tissue
  Concentration, Cornea: 17150 ng Equivalents [^14C]-compound of Formula I/g tissue
  Concentration, Iris-ciliary body: 17550 ng Equivalents [^14C]-compound of Formula I/g tissue
  Concentration, Lens: 38.8 ng Equivalents [^14C]-compound of Formula I/g tissue
  Concentration, Optic Nerve: 796 ng Equivalents [^14C]-compound of Formula I/g tissue
  Concentration, Retina and Choroid (with RPE): 510 ng Equivalents [^14C]-compound of Formula I/g tissue
  Concentration, Sclera: 2750 ng Equivalents [^14C]-compound of Formula I/g tissue
  Concentration, Vitreous Humor: 1330 ng Equivalents [^14C]-compound of Formula I/g tissue
[4]; 4.0 hours after administration
  Concentration, Aqueous humor: 116 ng Equivalents [^14C]-compound of Formula I/g tissue
  Concentration, Conjunctiva (bulbar): 4480 ng Equivalents [^14C]-compound of Formula I/g tissue
  Concentration, Conjunctiva (palpebral): 21830 ng Equivalents [^14C]-compound of Formula I/g tissue
  Concentration, Cornea: 1346 ng Equivalents [^14C]-compound of Formula I/g tissue
  Concentration, Iris-ciliary body: 500 ng Equivalents [^14C]-compound of Formula I/g tissue
  Concentration, Lens: 9.69 ng Equivalents [^14C]-compound of Formula I/g tissue
  Concentration, Optic Nerve: 0 ng Equivalents [^14C]-compound of Formula I/g tissue
  Concentration, Retina and Choroid (with RPE): 46.7 ng Equivalents [^14C]-compound of Formula I/g tissue
  Concentration, Sclera: 387 ng Equivalents [^14C]-compound of Formula I/g tissue
  Concentration, Vitreous Humor: 183 ng Equivalents [^14C]-compound of Formula I/g tissue
[4]; ocular or IV
  Urinary excretion of administered radioactivity: up to 2%
[4]; tissue distribution in pigmented vs albino rats
  melanin binding: did not preferentially bind to melanin
[4]; up to 168 hrs after topical ocular or IV dose
  metabolites in pooled plasma, urine and fecal homogenates: no metabolites were isolated
[5]
  NOAEL: 3.5 mg/eye/3× per day
[6]
  clearance: > 100 mL/min/kg
[7]
  time of maximum plasma concentration: about 0.25 hrs
[8]; daily IV bolus 10 mg/kg
  Cmax: 1045.3 ng/mL
[8]; daily IV bolus 30 mg/kg
  AUC0-n: 2345.5 ng·h/mL
  Cmax: 5117.3 ng/mL
